Data published in PubChem BioAssay AID256 (DTP/NCI, 2004).
Several values for one entry are separate records, joined by “and”; a condition that tells them apart may be missing. Identical values can stand only once. Toxic doses and inconclusive results are not listed. How the source made its calls: active means survival T/C of 150% or more; inactive means T/C below 125% in these data.

Tested on: CD2F1 mice, L1210 leukemia ip, survival T/C
Assay: NCI In Vivo Anticancer Drug Screen. Data for tumor model L1210 Leukemia (intraperitoneal) in CD2F1 (CDF1) mice
Settings: higher = longer survival
Method in brief: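 Tumor-bearing mice (transplanted tumor) were split into treated and vehicle control groups, and the measured endpoint of each treated group was divided by that of its vehicle controls.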

[1] = endpoint: mean survival time, dose: 100.0 mg/kg/injection, schedule: Q01DX001 (ip), vehicle: saline with Tween-80
[2] = endpoint: mean survival time, dose: 200.0 mg/kg/injection, schedule: Q01DX001 (ip), vehicle: saline with Tween-80
[3] = endpoint: mean survival time, dose: 400.0 mg/kg/injection, schedule: Q01DX001 (ip), vehicle: saline with Tween-80
[4] = endpoint: mean survival time, dose: 100.0 mg/kg/injection, schedule: Q01DX009 (ip), vehicle: saline with Tween-80
[5] = endpoint: mean survival time, dose: 200.0 mg/kg/injection, schedule: Q01DX009 (ip), vehicle: saline with Tween-80
[6] = endpoint: mean survival time, dose: 400.0 mg/kg/injection, schedule: Q01DX009 (ip), vehicle: saline with Tween-80
[7] = endpoint: mean survival time, dose: 100.0 mg/kg/injection, schedule: Q04DX002 (ip), vehicle: saline with Tween-80
[8] = endpoint: mean survival time, dose: 200.0 mg/kg/injection, schedule: Q04DX002 (ip), vehicle: saline with Tween-80
[9] = endpoint: mean survival time, dose: 400.0 mg/kg/injection, schedule: Q04DX002 (ip), vehicle: saline with Tween-80
[10] = endpoint: mean survival time, dose: 200.0 mg/kg/injection, schedule: Q04DX003 (ip), vehicle: saline
[11] = endpoint: mean survival time, dose: 400.0 mg/kg/injection, schedule: Q04DX003 (ip), vehicle: saline
[12] = endpoint: mean survival time, dose: 100.0 mg/kg/injection, schedule: Q04DX003 (ip), vehicle: saline with Tween-80
[13] = endpoint: mean survival time, dose: 200.0 mg/kg/injection, schedule: Q04DX003 (ip), vehicle: saline with Tween-80
[14] = endpoint: mean survival time, dose: 400.0 mg/kg/injection, schedule: Q04DX003 (ip), vehicle: saline with Tween-80
[15] = endpoint: mean survival time, dose: 50.0 mg/kg/injection, schedule: Q01DX009 (ip), vehicle: Klucel (hydroxypropylcellulose) (HPC)
[16] = endpoint: mean survival time, dose: 100.0 mg/kg/injection, schedule: Q01DX009 (ip), vehicle: Klucel (hydroxypropylcellulose) (HPC)

Measured: T/C

COC(=O)[C@@]12OC[C@]34[C@H]([C@@H](O)[C@@H]1O)[C@@]1(C)CC(=O)C(O)=C(C)[C@@H]1C[C@H]3OC(=O)[C@H](OC(=O)/C=C(\C)C(C)C)[C@@H]24
inactive: endpoint: mean survival time, dose: 125.0 micrograms/kg/injection, schedule: Q01DX009 (ip), vehicle: saline + alcohol 120 % of control | endpoint: mean survival time, dose: 250.0 micrograms/kg/injection, schedule: Q01DX009 (ip), vehicle: saline + alcohol 106 % of control | endpoint: mean survival time, dose: 500.0 micrograms/kg/injection, schedule: Q01DX009 (ip), vehicle: saline + alcohol 112 % of control | endpoint: mean survival time, dose: 1000.0 micrograms/kg/injection, schedule: Q01DX009 (ip), vehicle: saline + alcohol 120 % of control | endpoint: median survival time, dose: 0.25 mg/kg/injection, schedule: Q01DX009 (ip), vehicle: saline + alcohol 120 % of control and 122 % of control | endpoint: median survival time, dose: 0.5 mg/kg/injection, schedule: Q01DX009 (ip), vehicle: saline + alcohol 120 % of control

CSCC1CCCCC12OCCO2 (stereo unspecified)
inactive: [1] 104 % of control | [2] 96 % of control | [3] 96 % of control

CC(C)(C)N(Cc1ccccc1)Cc1ccccc1
inactive: [4] 102 % of control | [5] 98 % of control | [6] 101 % of control

CC1(C)CC(O)(C(Cl)c2ccccc2)C(=O)c2ccccc21 (stereo unspecified)
inactive: endpoint: mean survival time, dose: 25.0 mg/kg/injection, schedule: Q01DX009 (ip), vehicle: water 103 % of control | endpoint: mean survival time, dose: 50.0 mg/kg/injection, schedule: Q01DX009 (ip), vehicle: water 104 % of control | endpoint: mean survival time, dose: 100.0 mg/kg/injection, schedule: Q01DX009 (ip), vehicle: water 98 % of control | endpoint: mean survival time, dose: 100.0 mg/kg/injection, schedule: Q04DX003 (ip), vehicle: acetone 98 % of control | endpoint: mean survival time, dose: 200.0 mg/kg/injection, schedule: Q01DX009 (ip), vehicle: water 109 % of control | endpoint: mean survival time, dose: 200.0 mg/kg/injection, schedule: Q04DX003 (ip), vehicle: acetone 95 % of control | endpoint: mean survival time, dose: 400.0 mg/kg/injection, schedule: Q01DX009 (ip), vehicle: water 107 % of control | endpoint: mean survival time, dose: 400.0 mg/kg/injection, schedule: Q04DX003 (ip), vehicle: acetone 95 % of control

CC(=O)Nc1cccc(/C=C/c2ccc([N+](=O)[O-])cc2)c1
inactive: endpoint: mean survival time, dose: 100.0 mg/kg/injection, schedule: Q01DX001 (ip), vehicle: Klucel (hydroxypropylcellulose) (HPC) 100 % of control | endpoint: mean survival time, dose: 200.0 mg/kg/injection, schedule: Q01DX001 (ip), vehicle: Klucel (hydroxypropylcellulose) (HPC) 103 % of control | endpoint: mean survival time, dose: 400.0 mg/kg/injection, schedule: Q01DX001 (ip), vehicle: Klucel (hydroxypropylcellulose) (HPC) 93 % of control

CCC(=O)Sc1ccccc1C(=O)Nc1ccc(Cl)cc1
inactive: endpoint: median survival time, dose: 25.0 mg/kg/injection, schedule: Q01DX009 (ip), vehicle: saline with Tween-80 112 % of control | endpoint: median survival time, dose: 50.0 mg/kg/injection, schedule: Q01DX009 (ip), vehicle: saline with Tween-80 111 % of control | endpoint: median survival time, dose: 100.0 mg/kg/injection, schedule: Q01DX009 (ip), vehicle: saline with Tween-80 107 % of control | endpoint: median survival time, dose: 200.0 mg/kg/injection, schedule: Q01DX009 (ip), vehicle: saline with Tween-80 112 % of control | endpoint: median survival time, dose: 400.0 mg/kg/injection, schedule: Q01DX009 (ip), vehicle: saline with Tween-80 86 % of control

COC(=O)c1cccn1C(=O)c1ccccc1N
inactive: [7] 96 % of control | [8] 93 % of control | [9] 100 % of control

CCOc1ccccc1OC(=O)Nc1ccc(OC)cc1
inactive: endpoint: mean survival time, dose: 25.0 mg/kg/injection, schedule: Q01DX009 (ip), vehicle: saline with Tween-80 97 % of control | endpoint: mean survival time, dose: 25.0 mg/kg/injection, schedule: Q04DX002 (ip), vehicle: saline with Tween-80 114 % of control | endpoint: mean survival time, dose: 50.0 mg/kg/injection, schedule: Q01DX009 (ip), vehicle: saline with Tween-80 89 % of control | endpoint: mean survival time, dose: 50.0 mg/kg/injection, schedule: Q04DX002 (ip), vehicle: saline with Tween-80 104 % of control | [4] 97 % of control | [7] 94 % of control and 107 % of control | [9] 98 % of control

CC1=CCc2c(c(NS(=O)(=O)c3ccccc3)c3ccccc3c2NS(=O)(=O)c2ccccc2)C1
inactive: endpoint: mean survival time, dose: 37.5 mg/kg/injection, schedule: Q01DX001 (ip), vehicle: saline sonified 95 % of control | endpoint: mean survival time, dose: 75.0 mg/kg/injection, schedule: Q01DX001 (ip), vehicle: saline sonified 96 % of control | endpoint: mean survival time, dose: 150.0 mg/kg/injection, schedule: Q01DX001 (ip), vehicle: saline sonified 89 % of control

CC(O)C[As](=O)(O)c1ccccc1Cl (stereo unspecified)
inactive: endpoint: mean survival time, dose: 6.25 mg/kg/injection, schedule: Q04DX003 (ip), vehicle: saline 107 % of control | endpoint: mean survival time, dose: 12.5 mg/kg/injection, schedule: Q04DX003 (ip), vehicle: saline 107 % of control

CC(=O)CC(C)=NCCN=C(C)CC(C)=O.[Pd]
inactive: endpoint: mean survival time, dose: 3.13 mg/kg/injection, schedule: Q04DX003 (ip), vehicle: distilled water + Tween-80 93 % of control | endpoint: mean survival time, dose: 6.25 mg/kg/injection, schedule: Q04DX003 (ip), vehicle: distilled water + Tween-80 108 % of control | endpoint: mean survival time, dose: 12.5 mg/kg/injection, schedule: Q04DX003 (ip), vehicle: distilled water + Tween-80 100 % of control

C=CCn1nnnc1N
inactive: endpoint: mean survival time, dose: 100.0 mg/kg/injection, schedule: Q04DX003 (ip), vehicle: saline 101 % of control | [10] 103 % of control | [11] 101 % of control

CC1=Nc2ccccc2N2C1=CC1=C(C(=O)c3cc4ccccc4cc3C1=O)C2C (stereo unspecified)
inactive: endpoint: mean survival time, dose: 12.5 mg/kg/injection, schedule: Q04DX003 (ip), vehicle: saline with Tween-80 101 % of control | endpoint: mean survival time, dose: 25.0 mg/kg/injection, schedule: Q04DX003 (ip), vehicle: saline with Tween-80 122 % of control | endpoint: mean survival time, dose: 50.0 mg/kg/injection, schedule: Q04DX003 (ip), vehicle: saline with Tween-80 101 % of control | [10] 94 % of control | [11] 90 % of control

O=C1C2C3CCC(CC3)C2C(=O)C2C3CCC(C3)C12 (stereo unspecified)
inactive: [12] 100 % of control | [13] 92 % of control | [14] 88 % of control

CC1CCC(O)C2(C)CC(O)C(C(C)C(=O)O)CC12 (stereo unspecified)
inactive: [1] 92 % of control | [2] 92 % of control | [3] 88 % of control

CC(C)OC(=O)Nc1ccc(F)c(F)c1
inactive: [4] 95 % of control | [5] 98 % of control | [6] 114 % of control

CC(O)C1OC(n2cnc3c(=S)nc[nH]c32)C(O)C1O (stereo unspecified)
inactive: endpoint: median survival time, dose: 12.5 mg/kg/injection, schedule: Q01DX005 (ip), vehicle: distilled water + Tween-80 119 % of control and 107 % of control | endpoint: median survival time, dose: 25.0 mg/kg/injection, schedule: Q01DX005 (ip), vehicle: distilled water + Tween-80 116 % of control and 124 % of control

Cc1ccc2[nH]c(=O)[nH]c(=O)c2n1
inactive: endpoint: mean survival time, dose: 75.0 mg/kg/injection, schedule: Q01DX001 (ip), vehicle: other 98 % of control | endpoint: mean survival time, dose: 150.0 mg/kg/injection, schedule: Q01DX001 (ip), vehicle: other 98 % of control

Cc1ccccc1NC(=O)Oc1c(C)cccc1C
inactive: [7] 97 % of control | [8] 101 % of control | [9] 101 % of control

Cc1ccc([N+](=O)[O-])cc1NC(=O)COc1ccc(Cl)cc1
inactive: [12] 98 % of control | [13] 94 % of control | [14] 90 % of control

OCC1=CCN(CCc2c[nH]c3ccccc23)CC1
inactive: [4] 96 % of control | [5] 96 % of control

CCCCCCCCC1SC1CCCCCCCCOC(=O)CCCCCCCC1SC1CCCCCCCC (stereo unspecified)
inactive: endpoint: mean survival time, dose: 100.0 mg/kg/injection, schedule: Q04DX003 (ip), vehicle: Klucel (hydroxypropylcellulose) (HPC) 95 % of control | endpoint: mean survival time, dose: 200.0 mg/kg/injection, schedule: Q04DX003 (ip), vehicle: Klucel (hydroxypropylcellulose) (HPC) 93 % of control | endpoint: mean survival time, dose: 400.0 mg/kg/injection, schedule: Q04DX003 (ip), vehicle: Klucel (hydroxypropylcellulose) (HPC) 102 % of control

CC(C)(C)C1CCCCC1
inactive: endpoint: mean survival time, dose: 12.5 mg/kg/injection, schedule: Q01DX009 (ip), vehicle: Klucel (hydroxypropylcellulose) (HPC) 90 % of control and 101 % of control | endpoint: mean survival time, dose: 25.0 mg/kg/injection, schedule: Q01DX009 (ip), vehicle: Klucel (hydroxypropylcellulose) (HPC) 90 % of control and 98 % of control | [15] 93 % of control and 101 % of control | [16] 88 % of control and 98 % of control | endpoint: mean survival time, dose: 200.0 mg/kg/injection, schedule: Q01DX009 (ip), vehicle: Klucel (hydroxypropylcellulose) (HPC) 91 % of control and 98 % of control | endpoint: mean survival time, dose: 400.0 mg/kg/injection, schedule: Q01DX009 (ip), vehicle: Klucel (hydroxypropylcellulose) (HPC) 93 % of control

Cc1ccc(C(C)(C)C[P+](C)(c2ccccc2)c2ccccc2)cc1
inactive: [15] 100 % of control | [16] 102 % of control
